{
  "source": "paper PMC12610816",
  "about": "“New Dihalogenated Derivatives of Condensed Benzimidazole Diones Promotes Cancer Cell Death Through Regulating STAT3/HK2 Axis/Pathway” (Molecules, 2025)",
  "key": {"pyruvate kinase M2": {"target": "T1, pyruvate kinase M2 (Homo sapiens, UniProt P14618)", "T1 construct": "activity of rate-limiting glycolytic enzymes—hexokinase II, phosphofructokinase I, and pyruvate kinase M2—in MCF-7 cells; endogenous in cells", "T1 sequence (P14618 whole entry)": "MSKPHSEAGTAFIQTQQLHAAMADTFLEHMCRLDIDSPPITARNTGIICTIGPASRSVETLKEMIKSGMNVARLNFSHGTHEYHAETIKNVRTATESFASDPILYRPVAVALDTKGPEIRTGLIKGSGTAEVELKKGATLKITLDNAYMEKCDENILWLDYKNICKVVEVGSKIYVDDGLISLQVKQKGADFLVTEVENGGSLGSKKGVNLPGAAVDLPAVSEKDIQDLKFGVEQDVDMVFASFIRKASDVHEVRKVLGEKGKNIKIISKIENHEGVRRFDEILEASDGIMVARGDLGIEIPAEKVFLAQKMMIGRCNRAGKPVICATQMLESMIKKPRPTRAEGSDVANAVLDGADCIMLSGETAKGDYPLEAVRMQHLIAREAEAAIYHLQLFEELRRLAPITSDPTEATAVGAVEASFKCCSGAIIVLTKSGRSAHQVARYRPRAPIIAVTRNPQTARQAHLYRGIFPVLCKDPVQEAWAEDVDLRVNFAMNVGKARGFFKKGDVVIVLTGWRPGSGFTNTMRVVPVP", "test": "Glycolytic enzyme activity in treated cells (colorimetric kit)", "format": "cell-based", "details": "MCF-7 cells, 24-h incubation, 1/2 IC50"}, "phosphofructokinase I": {"system": "phosphofructokinase I", "test": "Glycolytic enzyme activity in treated cells (colorimetric kit)", "format": "cell-based, human", "details": "MCF-7 cells, 24-h incubation, 1/2 IC50"}, "SH-SY5Y": {"system": "SH-SY5Y", "test": "MTT cytotoxicity assay", "format": "cell-based", "details": "Human neuroblastoma, 24 h, read-out: IC50 of Cytotoxic Effect, SH-SY5Y", "experimental": "(§1) Human lung adenocarcinoma A549 cells, breast carcinoma MCF-7 cells, colon adenocarcinoma SW480 cells, neuroblastoma SH-SY5Y cells, and normal human embryonic kidney HEK-293 cells were obtained from the collection of the Institute of Cytology of the Russian Academy of Sciences (Saint Petersburg, Russia). Cultivation was performed in complete DMEM supplemented with glutamax, containing 10% fetal bovine serum and 1% penicillin-streptomycin. Cell cultures were incubated at 37 °C in a humidified atmosphere with 5% CO2.\n(§2) The MTT assay was used to determine the cytotoxic profile of the synthesized compounds [128]. This method is based on the reduction of the tetrazolium salt (3-(4,5-dimethylthiazol-2-yl)-2,5-diphenyl tetrazolium bromide) by mitochondrial dehydrogenases of living cells to water-insoluble formazan crystals.\n(§3) Cells in the exponential growth phase were seeded in 96-well culture plates. After 24 h, the test compounds were added to each well at various concentrations (from 0.01 to 100 µM) in triplicate. Control wells contained 1% DMSO solution.\n(§4) Following a 24-h incubation with the compounds, 5 mg/mL MTT solution was added to each well, and the cells were incubated at 37 °C for 2 h. Then, the MTT solution was carefully removed, and 200 µL DMSO was added to dissolve the formed formazan crystals. Optical density was measured at a wavelength of 540 nm.\n(§5) The efficacy indicators of the cytotoxic effect were IC50 values, representing compound concentrations causing 50% cell death in the sample."}, "SW-480": {"system": "SW-480", "test": "MTT cytotoxicity assay", "format": "cell-based", "details": "SW480, Human colorectal cancer cells, 24 h, read-out: IC50 of Cytotoxic Effect, SW-480", "experimental": "as §1, §2, §3, §4, §5"}, "MTT cytotoxicity assay": {"test": "MTT cytotoxicity assay", "format": "cell-based", "details": "HEK-293 cells (normal embryonic kidney), Human embryonic kidney (normal origin), read-out: IC50 of Cytotoxic Effect, Hek-293", "experimental": "as §1, §2, §3, §4, §5"}, "MCF-7": {"system": "MCF-7", "test": "MTT cytotoxicity assay", "format": "cell-based", "details": "MCF7, Human breast adenocarcinoma cells, 24 h, read-out: IC50 of Cytotoxic Effect, MCF-7", "experimental": "as §1, §2, §3, §4, §5"}, "A549": {"system": "A549", "test": "MTT cytotoxicity assay", "format": "cell-based", "details": "Human non-small cell lung cancer, 24 h, read-out: IC50 of Cytotoxic Effect, A549", "experimental": "as §1, §2, §3, §4, §5"}, "hexokinase II": {"system": "hexokinase II", "test": "Glycolytic enzyme activity in treated cells (colorimetric kit)", "format": "cell-based, human", "details": "MCF-7 cells, 24-h incubation, 1/2 IC50"}, "[1]": {"test": "MTT cytotoxicity assay, whole cell line panel", "format": "cell-based", "details": "human; summary of Table 1 over all five cell lines; read-out: IC50 values of the cytotoxic effect, range over the cell lines", "quoted_text": "The cytotoxic effects of the synthesized compounds were tested on the cell lines A549, MCF-7, SW-480, SH-SY5Y, and HEK-293."}},
  "data": [
    {"smiles": "O=C1C(Br)=C(Br)C(=O)c2c1nc1n2CCCC1", "note": "[Compound 6a, 7,8-dibromo-1,2,3,4-tetrahydropyrido[1,2-a]benzimidazole-6,9-dione]", "values": [
      {"measurement": "Inhibition of enzyme activity, % of control: PKM2", "setting": "pyruvate kinase M2", "value": "11.39 % of control"},
      {"measurement": "Inhibition of enzyme activity, % of control: PFK1", "setting": "phosphofructokinase I", "value": "9.75 % of control"},
      {"measurement": "IC50", "setting": "SH-SY5Y", "value": "9.66 ± 0.57", "unit": "µM"},
      {"measurement": "IC50", "setting": "SW-480", "value": "9.11 ± 0.13", "unit": "µM"},
      {"measurement": "IC50 at 24 h", "setting": "MTT cytotoxicity assay", "value": "24.8 ± 0.42", "unit": "µM"},
      {"measurement": "IC50", "setting": "MCF-7", "value": "8.81 ± 1.65", "unit": "µM"},
      {"measurement": "IC50", "setting": "A549", "value": "9.53 ± 0.59", "unit": "µM"}
    ]},
    {"smiles": "O=C1C(Br)=C(Cl)C(=O)c2c1nc1n2CCCC1", "note": "[Compound 6b, 7-bromo-8-chloro-1,2,3,4-tetrahydropyrido[1,2-a]benzimidazole-6,9-dione]", "values": [
      {"measurement": "Inhibition of enzyme activity, % of control: PKM2", "setting": "pyruvate kinase M2", "value": "14.85 % of control"},
      {"measurement": "Inhibition of enzyme activity, % of control: PFK1", "setting": "phosphofructokinase I", "value": "7.49 % of control"},
      {"measurement": "Inhibition of enzyme activity, % of control: HK2", "setting": "hexokinase II", "value": "34.25 % of control"},
      {"measurement": "IC50", "setting": "SH-SY5Y", "value": "8.6 ± 0.06", "unit": "µM"},
      {"measurement": "IC50", "setting": "SW-480", "value": "10.5 ± 0.68", "unit": "µM"},
      {"measurement": "IC50 at 24 h", "setting": "MTT cytotoxicity assay", "value": "16.52 ± 0.15", "unit": "µM"},
      {"measurement": "IC50", "setting": "MCF-7", "value": "7.79 ± 0.03", "unit": "µM"},
      {"measurement": "IC50", "setting": "A549", "value": "8.86 ± 3.19", "unit": "µM"}
    ]},
    {"smiles": "O=C1C(Cl)=C(Br)C(=O)c2c1nc1n2CCCC1", "note": "[Compound 6c, 8-bromo-7-chloro-1,2,3,4-tetrahydropyrido[1,2-a]benzimidazole-6,9-dione]", "values": [
      {"measurement": "Inhibition of enzyme activity, % of control: PKM2", "setting": "pyruvate kinase M2", "value": "13.57 % of control"},
      {"measurement": "Inhibition of enzyme activity, % of control: PFK1", "setting": "phosphofructokinase I", "value": "9.05 % of control"},
      {"measurement": "Inhibition of enzyme activity, % of control: HK2", "setting": "hexokinase II", "value": "36.01 % of control"},
      {"measurement": "IC50", "setting": "SH-SY5Y", "value": "9.49 ± 0.8", "unit": "µM"},
      {"measurement": "IC50", "setting": "SW-480", "value": "10.22 ± 0.04", "unit": "µM"},
      {"measurement": "IC50 at 24 h", "setting": "MTT cytotoxicity assay", "value": "16 ± 0.18", "unit": "µM"},
      {"measurement": "IC50", "setting": "MCF-7", "value": "8.35 ± 0.32", "unit": "µM"},
      {"measurement": "IC50", "setting": "A549", "value": "7.81 ± 0.64", "unit": "µM"}
    ]},
    {"smiles": "O=C1C(Cl)=C(Cl)C(=O)c2c1nc1n2CCCC1", "note": "[Compound 6d, 7,8-dichloro-1,2,3,4-tetrahydropyrido[1,2-a]benzimidazole-6,9-dione]", "values": [
      {"measurement": "Inhibition of enzyme activity, % of control: PKM2", "setting": "pyruvate kinase M2", "value": "9.48 % of control"},
      {"measurement": "Inhibition of enzyme activity, % of control: PFK1", "setting": "phosphofructokinase I", "value": "8.30 % of control"},
      {"measurement": "IC50", "setting": "SH-SY5Y", "value": "8.52 ± 0.49", "unit": "µM"},
      {"measurement": "IC50", "setting": "SW-480", "value": "8.68 ± 0.2", "unit": "µM"},
      {"measurement": "IC50 at 24 h", "setting": "MTT cytotoxicity assay", "value": "15.1 ± 0.38", "unit": "µM"},
      {"measurement": "IC50", "setting": "MCF-7", "value": "8.52 ± 0.23", "unit": "µM"},
      {"measurement": "IC50", "setting": "A549", "value": "7.76 ± 0.17", "unit": "µM"}
    ]},
    {"smiles": "CC1CCn2c(nc3c2C(=O)C(Br)=C(Cl)C3=O)C1", "note": "(stereo not shown) [Compound 6e, 8-bromo-7-chloro-3-methyl-1,2,3,4-tetrahydropyrido[1,2-a]benzimidazole-6,9-dione]", "values": [
      {"measurement": "Inhibition of enzyme activity, % of control: PKM2", "setting": "pyruvate kinase M2", "value": "8.36 % of control"},
      {"measurement": "Inhibition of enzyme activity, % of control: PFK1", "setting": "phosphofructokinase I", "value": "7.40 % of control"},
      {"measurement": "Inhibition of enzyme activity, % of control: HK2", "setting": "hexokinase II", "value": "36.22 % of control"},
      {"measurement": "IC50", "setting": "SH-SY5Y", "value": "9.28 ± 0.15", "unit": "µM"},
      {"measurement": "IC50", "setting": "SW-480", "value": "9.53 ± 0.51", "unit": "µM"},
      {"measurement": "IC50 at 24 h", "setting": "MTT cytotoxicity assay", "value": "20.2 ± 0.3", "unit": "µM"},
      {"measurement": "IC50", "setting": "MCF-7", "value": "8.97 ± 0.05", "unit": "µM"},
      {"measurement": "IC50", "setting": "A549", "value": "8.23 ± 0.39", "unit": "µM"}
    ]},
    {"smiles": "O=C1C(Cl)=C(Br)C(=O)c2c1nc1n2CCOC1", "note": "[Compound 6f, 7-bromo-8-chloro-3,4-dihydro-1H-[1,4]oxazino[4,3-a]benzimidazole-6,9-dione]", "values": [
      {"measurement": "Inhibition of enzyme activity, % of control: PKM2", "setting": "pyruvate kinase M2", "value": "12.09 % of control"},
      {"measurement": "Inhibition of enzyme activity, % of control: PFK1", "setting": "phosphofructokinase I", "value": "7.57 % of control"},
      {"measurement": "Inhibition of enzyme activity, % of control: HK2", "setting": "hexokinase II", "value": "30.83 % of control"},
      {"measurement": "IC50", "setting": "SH-SY5Y", "value": "10.8 ± 0.93", "unit": "µM"},
      {"measurement": "IC50", "setting": "SW-480", "value": "8.44 ± 0.07", "unit": "µM"},
      {"measurement": "IC50 at 24 h", "setting": "MTT cytotoxicity assay", "value": "25.38 ± 0.02", "unit": "µM"},
      {"measurement": "IC50", "setting": "MCF-7", "value": "8.9 ± 0.19", "unit": "µM"},
      {"measurement": "IC50", "setting": "A549", "value": "11.3 ± 2.49", "unit": "µM"}
    ]},
    {"smiles": "CO[C@@]12[C@H](COC(N)=O)C3=C(C(=O)C(C)=C(N)C3=O)N1C[C@@H]1N[C@@H]12", "note": "[Mytomycin C, Mitomycin C, reference compound]", "values": [
      {"measurement": "IC50 at 24 h", "setting": "[1]", "value": "8 to 20", "unit": "µM"},
      {"measurement": "IC50", "setting": "SH-SY5Y", "value": "7.04 ± 0.02", "unit": "µM"},
      {"measurement": "IC50", "setting": "SW-480", "value": "11.3 ± 0.46", "unit": "µM"},
      {"measurement": "IC50 at 24 h", "setting": "MTT cytotoxicity assay", "value": "6.59 ± 1.46", "unit": "µM"},
      {"measurement": "IC50", "setting": "MCF-7", "value": "20.4 ± 1.74", "unit": "µM"},
      {"measurement": "IC50", "setting": "A549", "value": "18.1 ± 1.8", "unit": "µM"}
    ]}
  ]
}
